This is an account of results in ChEMBL document CHEMBL1629456, “ApoA-I mimetic peptides promote pre-β HDL formation in vivo causing remodeling of HDL and triglyceride accumulation at higher dose” (Bioorg Med Chem, 2010).

pEC50: −log10 of the molar value. Where only a bound is given, the exact number is not on record here.

The assay concerns the target Phospholipid-transporting ATPase ABCA1 (Mus musculus, UniProt P41233). The assay is described as follows: Induction of ABCA1-mediated [3H]cholesterol efflux in mouse RAW 264.7 macrophages after 24 hrs.

Chain of Phospholipid-transporting ATPase ABCA1 (P41233 whole entry): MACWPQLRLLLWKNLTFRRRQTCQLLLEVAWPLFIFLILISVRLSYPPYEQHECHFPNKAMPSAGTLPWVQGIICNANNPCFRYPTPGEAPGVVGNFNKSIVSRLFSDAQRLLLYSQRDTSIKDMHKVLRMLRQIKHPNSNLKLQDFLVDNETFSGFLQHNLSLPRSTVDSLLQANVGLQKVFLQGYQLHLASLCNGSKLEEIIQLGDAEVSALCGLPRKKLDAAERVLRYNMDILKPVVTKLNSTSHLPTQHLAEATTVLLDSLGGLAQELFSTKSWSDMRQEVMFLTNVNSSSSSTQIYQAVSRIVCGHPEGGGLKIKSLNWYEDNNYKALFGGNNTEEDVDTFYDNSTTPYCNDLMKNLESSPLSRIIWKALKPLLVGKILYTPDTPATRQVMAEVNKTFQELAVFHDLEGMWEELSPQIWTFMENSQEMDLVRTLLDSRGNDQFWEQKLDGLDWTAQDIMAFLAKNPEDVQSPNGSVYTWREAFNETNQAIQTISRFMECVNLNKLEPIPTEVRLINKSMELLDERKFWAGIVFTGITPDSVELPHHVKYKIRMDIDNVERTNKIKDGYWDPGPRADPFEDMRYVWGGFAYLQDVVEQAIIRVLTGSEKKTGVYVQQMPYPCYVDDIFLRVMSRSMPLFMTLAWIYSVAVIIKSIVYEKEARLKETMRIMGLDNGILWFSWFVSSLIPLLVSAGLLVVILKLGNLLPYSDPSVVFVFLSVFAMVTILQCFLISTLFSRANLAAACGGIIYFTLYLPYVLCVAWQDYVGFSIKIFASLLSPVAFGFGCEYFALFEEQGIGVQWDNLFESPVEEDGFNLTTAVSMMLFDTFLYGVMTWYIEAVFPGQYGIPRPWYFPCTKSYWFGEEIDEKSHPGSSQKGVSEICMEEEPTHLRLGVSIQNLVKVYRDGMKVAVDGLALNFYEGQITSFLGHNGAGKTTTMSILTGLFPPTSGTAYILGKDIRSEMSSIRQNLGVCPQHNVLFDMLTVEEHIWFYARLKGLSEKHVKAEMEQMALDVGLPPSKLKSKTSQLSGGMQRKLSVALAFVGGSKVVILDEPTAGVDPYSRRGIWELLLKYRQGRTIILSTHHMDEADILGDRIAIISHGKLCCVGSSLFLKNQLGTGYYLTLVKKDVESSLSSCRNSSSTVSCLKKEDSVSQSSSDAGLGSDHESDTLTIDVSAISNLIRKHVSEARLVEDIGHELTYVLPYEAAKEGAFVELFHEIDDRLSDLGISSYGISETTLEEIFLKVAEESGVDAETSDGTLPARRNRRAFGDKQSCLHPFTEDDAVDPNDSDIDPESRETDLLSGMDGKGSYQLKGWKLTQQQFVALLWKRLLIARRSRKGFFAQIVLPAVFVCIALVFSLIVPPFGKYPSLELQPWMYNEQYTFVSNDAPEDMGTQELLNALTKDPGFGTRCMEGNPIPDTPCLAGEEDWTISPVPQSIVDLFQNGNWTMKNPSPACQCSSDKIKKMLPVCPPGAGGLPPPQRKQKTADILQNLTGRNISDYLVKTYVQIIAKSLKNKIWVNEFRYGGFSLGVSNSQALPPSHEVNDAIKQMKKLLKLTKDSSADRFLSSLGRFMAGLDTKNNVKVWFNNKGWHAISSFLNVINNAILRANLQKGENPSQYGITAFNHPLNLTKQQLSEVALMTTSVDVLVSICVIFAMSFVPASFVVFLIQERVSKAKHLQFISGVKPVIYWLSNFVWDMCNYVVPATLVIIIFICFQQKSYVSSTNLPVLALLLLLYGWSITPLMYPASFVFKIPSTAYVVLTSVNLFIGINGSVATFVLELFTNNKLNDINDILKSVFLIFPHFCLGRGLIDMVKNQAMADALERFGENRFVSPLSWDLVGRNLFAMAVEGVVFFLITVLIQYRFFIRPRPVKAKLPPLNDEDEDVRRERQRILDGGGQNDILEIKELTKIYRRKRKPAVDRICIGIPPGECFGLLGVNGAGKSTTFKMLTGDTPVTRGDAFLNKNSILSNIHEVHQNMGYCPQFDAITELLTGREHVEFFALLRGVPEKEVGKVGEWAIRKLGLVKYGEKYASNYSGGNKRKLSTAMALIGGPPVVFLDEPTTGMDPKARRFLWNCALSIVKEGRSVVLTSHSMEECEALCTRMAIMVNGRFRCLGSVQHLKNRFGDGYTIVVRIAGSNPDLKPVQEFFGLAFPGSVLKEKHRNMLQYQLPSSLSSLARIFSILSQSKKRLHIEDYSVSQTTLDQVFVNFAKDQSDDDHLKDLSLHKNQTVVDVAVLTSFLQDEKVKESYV

Take `C=CCCCC[C@@H](NC(=O)[C@H](CCC(=O)O)NC(=O)[C@H](CCC(=O)O)NC(=O)[C@H](CC(N)=O)NC(=O)[C@H](CC(C)C)NC(=O)[C@H](CCCCN)NC(=O)[C@H](CCC(=O)O)NC(=O)[C@H](CCCN=C(N)N)NC(=O)[C@H](Cc1ccccc1)NC(=O)[C@H](CCC(=O)O)NC(=O)[C@H](CC(=O)O)NC(=O)[C@H](CC(C)C)NC(=O)[C@@H](NC(=O)[C@@H]1CCCN1C(C)=O)C(C)C)C(=O)N[C@@H](CCC(=O)O)C(=O)N[C@@H](C)C(=O)N[C@@H](CC(C)C)C(=O)N[C@@H](CCCCN)C(=O)N[C@@H](CCC(N)=O)C(=O)N[C@@H](CCCCN)C(=O)N[C@@H](CC(C)C)C(=O)N[C@@H](CCCCN)C(N)=O`: the pEC50 (commonly −log10 of the EC50, conventionally taken in molar units) was below 4.00.

Regarding `C=CCCCC[C@@H](NC(=O)[C@H](C)NC(=O)[C@H](CCC(=O)O)NC(=O)[C@H](CC(C)C)NC(=O)[C@H](CCC(=O)O)NC(=O)[C@H](CCC(=O)O)NC(=O)[C@H](CC(N)=O)NC(=O)[C@H](CC(C)C)NC(=O)[C@H](CCCCN)NC(=O)[C@H](CCC(=O)O)NC(=O)[C@H](CCCNC(=N)N)NC(=O)[C@H](Cc1ccccc1)NC(=O)[C@H](CCC(=O)O)NC(=O)[C@H](CC(=O)O)NC(=O)[C@H](CC(C)C)NC(=O)[C@@H](NC(=O)[C@@H]1CCCN1C(C)=O)C(C)C)C(=O)N[C@@H](CCCCN)C(=O)N[C@@H](CCC(N)=O)C(=O)N[C@@H](CCCCN)C(=O)N[C@@H](CC(C)C)C(=O)N[C@@H](CCCCN)C(N)=O`, the pEC50 is below 4.00. For `C=CCCCC[C@@H](NC(=O)[C@H](CCC(N)=O)NC(=O)[C@H](CCCCN)NC(=O)[C@H](CC(C)C)NC(=O)[C@H](C)NC(=O)[C@H](CCC(=O)O)NC(=O)[C@H](CC(C)C)NC(=O)[C@H](CCC(=O)O)NC(=O)[C@H](CCC(=O)O)NC(=O)[C@H](CC(N)=O)NC(=O)[C@H](CC(C)C)NC(=O)[C@H](CCCCN)NC(=O)[C@H](CCC(=O)O)NC(=O)[C@H](CCCNC(=N)N)NC(=O)[C@H](Cc1ccccc1)NC(=O)[C@H](CCC(=O)O)NC(=O)[C@H](CC(=O)O)NC(=O)[C@H](CC(C)C)NC(=O)[C@@H](NC(=O)[C@@H]1CCCN1C(C)=O)C(C)C)C(=O)N[C@@H](CC(C)C)C(=O)N[C@@H](CCCCN)C(N)=O`, the pEC50 was below 4.00. Turning to `C=CCCCC[C@@H](NC(=O)[C@H](CCCCN)NC(=O)[C@H](CCC(N)=O)NC(=O)[C@H](CCCCN)NC(=O)[C@H](CC(C)C)NC(=O)[C@H](C)NC(=O)[C@H](CCC(=O)O)NC(=O)[C@H](CC(C)C)NC(=O)[C@H](CCC(=O)O)NC(=O)[C@H](CCC(=O)O)NC(=O)[C@H](CC(N)=O)NC(=O)[C@H](CC(C)C)NC(=O)[C@H](CCCCN)NC(=O)[C@H](CCC(=O)O)NC(=O)[C@H](CCCNC(=N)N)NC(=O)[C@H](Cc1ccccc1)NC(=O)[C@H](CCC(=O)O)NC(=O)[C@H](CC(=O)O)NC(=O)[C@H](CC(C)C)NC(=O)[C@@H](NC(=O)[C@@H]1CCCN1C(C)=O)C(C)C)C(=O)N[C@@H](CCCCN)C(N)=O`, the pEC50 is below 4.00.

On to `C=CCCC[C@@H](NC(=O)[C@H](CCC(=O)O)NC(=O)[C@H](CC(=O)O)NC(=O)[C@H](CC(C)C)NC(=O)[C@@H](NC(=O)[C@@H]1CCCN1C(C)=O)C(C)C)C(=O)N[C@@H](CCCNC(=N)N)C(=O)N[C@@H](CCC(=O)O)C(=O)N[C@@H](CCCCN)C(=O)N[C@@H](CC(C)C)C(=O)N[C@@H](CC(N)=O)C(=O)N[C@@H](CCC(=O)O)C(=O)N[C@@H](CCC(=O)O)C(=O)N[C@@H](CC(C)C)C(=O)N[C@@H](CCC(=O)O)C(=O)N[C@@H](C)C(=O)N[C@@H](CC(C)C)C(=O)N[C@@H](CCCCN)C(=O)N[C@@H](CCC(N)=O)C(=O)N[C@@H](CCCCN)C(=O)N[C@@H](CC(C)C)C(=O)N[C@@H](CCCCN)C(N)=O`, for which the pEC50 was below 4.00.
